Legend:
[1] = Cytotoxicity in HeLa cells (ATP content, ATPlite kit); settings: human
Description: (§1) Black 384-well clear-bottom microtiter plates (Corning, Amsterdam, The Netherlands) were filled via acoustic drop ejection using the echo liquid handler (Labcyte, Sunnyvale, Calif.). 200 nL of compound stock solutions (100% DMSO) were transferred to the assay plates. 9 serial 4-fold dilutions of compound were made, creating per quadrant the same compound concentration. The assay was initiated by adding 10 μL of culture medium to each well (RPMI medium without phenol red, 10% FBS-heat inactivated, 0.04% gentamycin (50 mg/mL). All addition steps are done by using a multidrop dispenser (Thermo Scientific, Erembodegem, Belgium). Next, rgRSV224 virus (MOI=1) diluted in culture medium was added to the plates. rgRSV224 virus is an engineered virus that includes an additional GFP gene (Hallak L K, Spillmann D, Collins P L, Peeples M E. Glycosaminoglycan sulfation requirements for respiratory syncytial virus infection; Journal of virology (2000), 74(22), 10508-13) and was in-licensed from the NIH (Bethesda, Md., USA). Finally, 20 μL of a HeLa cell suspension (3,000 cells/well) were plated. Medium, virus- and mock-infected controls were included in each test. The wells contain 0.05% DMSO per volume. Cells were incubated at 37° C. in a 5% CO2 atmosphere. Three days post-virus exposure, viral replication was quantified by measuring GFP expression in the cells by an in house developed MSM laser microscope (Tibotec, Beerse, Belgium). The EC50 was defined as the 50% inhibitory concentration for GFP expression. In parallel, compounds were incubated for three days in a set of white 384-well microtiter plates (Corning) and the cytotoxicity of compounds in HeLa cells was determined by measuring the ATP content of the cells using the ATPlite kit (Perkin Elmer, Zaventem, Belgium) according to the manufacturer's instructions. The CC50 was defined as the 50% concentration for cytotoxicity.

rgRSV224 virus = assay: Antiviral activity: rgRSV224 (GFP) replication in HeLa cells; settings: human respiratory syncytial virus, 72 h, read-out: RSV HELA EC50
Description: as §1

in vitro = settings: human
Description: as §1

Row | SMILES | CC50 at 3 days [1] | EC50 (rgRSV224 virus) | melting point | CC50 at 3 days (in vitro)
1 | C[C@@H]1c2ccccc2CCN1C(=O)c1cc(C2CC2)n2nc(-c3ccc([C@H]4C[C@@H]4NP(C)(C)=O)cc3F)cc2n1 [Compound 37, (1R)-2-(7-Cyclopropyl-2-{4-[(1R,2S)-2-[(dimethylphosphoryl)amino]cyclopropyl]-2-fluorophenyl}pyrazolo[1,5-a]pyrimidine-5-carbonyl)-1-methyl-1,2,3,4-tetrahydroisoquinoline] | 41600 nM | 63 nM |  | 
2 | C[C@@H]1c2ccccc2CCN1C(=O)c1cc(C2CC2)n2nc(-c3ccc([C@H]4C[C@@H]4c4nnn[nH]4)cc3F)cc2n1 [Compound 4, (1R)-2-(7-Cyclopropyl-2-{2-fluoro-4-[(1S,2S)-2-(1H-1,2,3,4-tetrazol-5-yl)cyclopropyl]phenyl}pyrazolo[1,5-a]pyrimidine-5-carbonyl)-1-methyl-1,2,3,4-tetrahydroisoquinoline] |  | 120 nM | 254.07 °C | 44000 nM
3 | C[C@@H]1c2ccccc2CCN1C(=O)c1cc(C2CC2)n2nc(-c3ccc([C@H]4C[C@@H]4C(=O)NS(=O)(=O)C4CC4)cc3F)cc2n1 [Compound 27, (1S,2S)—N-(Cyclopropanesulfonyl)-2-(4-{7-cyclopropyl-5-[(1R)-1-methyl-1,2,3,4-tetrahydroisoquinoline-2-carbonyl]pyrazolo[1,5-a]pyrimidin-2-yl}-3-fluorophenyl)-cyclopropane-1-carboxamide] |  | 40 nM | 177.21 °C | 55800 nM
4 | C[C@@H]1c2ccccc2CCN1C(=O)c1cc(C2CC2)n2nc(-c3ccc([C@H]4C[C@@H]4OC(N)=O)cc3F)cc2n1 [Compound 39, (1S,2R)-2-(4-{7-Cyclopropyl-5-[(1R)-1-methyl-1,2,3,4-tetrahydroisoquinoline-2-carbonyl]pyrazolo[1,5-a]pyrimidin-2-yl}-3-fluorophenyl)cyclopropyl carbamate] |  | 82 nM | 297.87 °C | 12500 nM
5 | C[C@@H]1c2ccccc2CCN1C(=O)c1cc(C2CC2)n2nc(-c3ccc([C@H]4C[C@@H]4C(=O)NS(C)(=O)=O)cc3F)cc2n1 [Compound 24, (1S,2S)-2-(4-{7-Cyclopropyl-5-[(1R)-1-methyl-1,2,3,4-tetrahydroisoquinoline-2-carbonyl]pyrazolo[1,5-a]pyrimidin-2-yl}-3-fluorophenyl)-N-methanesulfonyl-cyclopropane-1-carboxamide] |  | 20 nM | 166.75 °C | 44900 nM
6 | CC(C)CS(=O)(=O)NC(=O)[C@H]1C[C@@H]1c1ccc(-c2cc3nc(C(=O)N4CCc5ccccc5[C@H]4C)cc(C4CC4)n3n2)c(F)c1 [Compound 26, (1S,2S)-2-(4-{7-Cyclopropyl-5-[(1R)-1-methyl-1,2,3,4-tetrahydroisoquinoline-2-carbonyl]pyrazolo[1,5-a]pyrimidin-2-yl}-3-fluorophenyl)-N-(2-methylpropanesulfonyl)-cyclopropane-1-carboxamide] |  | 138 nM | 160.53 °C | 52100 nM
7 | CNC(=O)O[C@H]1C[C@@H]1c1ccc(-c2cc3nc(C(=O)N4CCc5ccccc5[C@H]4C)cc(C4CC4)n3n2)c(F)c1 [Compound 40, (1S,2R)-2-(4-{7-Cyclopropyl-5-[(1R)-1-methyl-1,2,3,4-tetrahydroisoquinoline-2-carbonyl]pyrazolo[1,5-a]pyrimidin-2-yl}-3-fluorophenyl)cyclopropyl N-methylcarbamate] |  | 138 nM | 274.46 °C | > 100000 nM
8 | CNC(=O)C[C@H]1C[C@@H](c2ccc(-c3cc4nc(C(=O)N5CCc6ccccc6[C@H]5C)cc(C5CC5)n4n3)c(F)c2)C1 [Compound 48, N-methyl-2-[cis-3-(4-{7-cyclopropyl-5-[(1R)-1-methyl-1,2,3,4-tetrahydroisoquinoline-2-carbonyl]pyrazolo[1,5-a]pyrimidin-2-yl}-3-fluorophenyl)cyclobutyl]acetamide] |  | 151 nM | 143.95 °C | 23900 nM
9 | C[C@@H]1c2ccccc2CCN1C(=O)c1cc(C2CC2)n2nc(-c3ccc([C@H]4C[C@@H](COC(N)=O)C4)cc3F)cc2n1 [Compound 44, [cis-3-(4-{7-Cyclopropyl-5-[(1R)-1-methyl-1,2,3,4-tetrahydroisoquinoline-2-carbonyl]pyrazolo[1,5-a]pyrimidin-2-yl}-3-fluorophenyl)cyclobutyl]methyl carbamate] |  | 332 nM | 300.97 °C | > 100000 nM

— US11491157B2, “Cycloalkyl substituted pyrazolopyrimidines having activity against RSV” (priority 2018, dated 2022)
